The target of assay [1] is T1, GR (Rattus norvegicus, UniProt P06536).
T1 construct: expressed in transfected cells; gift of Keith Yamamoto
T1 sequence (P06536 1-795): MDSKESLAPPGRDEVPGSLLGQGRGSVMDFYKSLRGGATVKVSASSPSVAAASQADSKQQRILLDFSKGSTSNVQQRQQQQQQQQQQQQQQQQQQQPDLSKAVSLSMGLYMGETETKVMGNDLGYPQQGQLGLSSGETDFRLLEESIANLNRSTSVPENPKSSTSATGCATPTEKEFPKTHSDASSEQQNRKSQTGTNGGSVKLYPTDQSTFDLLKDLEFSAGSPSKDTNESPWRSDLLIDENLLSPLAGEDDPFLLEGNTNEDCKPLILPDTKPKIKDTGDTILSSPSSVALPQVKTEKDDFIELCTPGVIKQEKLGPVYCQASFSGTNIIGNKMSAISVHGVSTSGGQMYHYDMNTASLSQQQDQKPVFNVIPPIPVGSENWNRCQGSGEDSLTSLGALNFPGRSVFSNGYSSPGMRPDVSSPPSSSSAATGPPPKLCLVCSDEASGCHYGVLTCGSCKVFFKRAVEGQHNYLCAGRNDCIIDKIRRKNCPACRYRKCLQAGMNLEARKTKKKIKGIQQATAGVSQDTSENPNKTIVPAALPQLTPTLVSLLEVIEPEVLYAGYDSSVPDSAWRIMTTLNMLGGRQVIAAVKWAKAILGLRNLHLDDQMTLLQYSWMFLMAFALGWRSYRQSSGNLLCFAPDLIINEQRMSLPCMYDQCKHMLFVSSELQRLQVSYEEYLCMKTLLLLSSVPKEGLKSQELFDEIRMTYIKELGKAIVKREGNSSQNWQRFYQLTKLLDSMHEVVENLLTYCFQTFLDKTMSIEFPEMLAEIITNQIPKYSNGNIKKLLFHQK
The experiment in a line: AP-1 repression luciferase assay in U2OS cells stably transfected with rat GR. Type of assay: cell-based. Particulars: Table 5, TPA-stimulated U2OS cells; for EC50: read-out: Repression AP-1 pot (EC50); for Emax: 12 h, read-out: Repression AP-1 % max repression. The method, then:
For API repression assays, U2OS cells stably transfected with rat GR were grown in similar media as for CV-1 cells with the exception of the FBS concentration, which was 10% and the only antibiotic was […]. Cells were plated and transfected in a similar fashion, except for plasmids, which in this case were 50 ng/well AP1-Luc and 10 ng/well β-galactosidase. Post-transfection, cells were incubated with either 50 ng/mL TPA (Phorbol 12-myristate 13-acetate), or 50 ng/mL TPA and various hormone dilutions in 10% charcoal treated FBS media. The cells were incubated for 12 h, and the lysis, β-galactosidase assay, and luciferase assay were performed as previously described.

The next assay addresses T2, MR (Homo sapiens, UniProt P08235).
T2 sequence (P08235 1-984): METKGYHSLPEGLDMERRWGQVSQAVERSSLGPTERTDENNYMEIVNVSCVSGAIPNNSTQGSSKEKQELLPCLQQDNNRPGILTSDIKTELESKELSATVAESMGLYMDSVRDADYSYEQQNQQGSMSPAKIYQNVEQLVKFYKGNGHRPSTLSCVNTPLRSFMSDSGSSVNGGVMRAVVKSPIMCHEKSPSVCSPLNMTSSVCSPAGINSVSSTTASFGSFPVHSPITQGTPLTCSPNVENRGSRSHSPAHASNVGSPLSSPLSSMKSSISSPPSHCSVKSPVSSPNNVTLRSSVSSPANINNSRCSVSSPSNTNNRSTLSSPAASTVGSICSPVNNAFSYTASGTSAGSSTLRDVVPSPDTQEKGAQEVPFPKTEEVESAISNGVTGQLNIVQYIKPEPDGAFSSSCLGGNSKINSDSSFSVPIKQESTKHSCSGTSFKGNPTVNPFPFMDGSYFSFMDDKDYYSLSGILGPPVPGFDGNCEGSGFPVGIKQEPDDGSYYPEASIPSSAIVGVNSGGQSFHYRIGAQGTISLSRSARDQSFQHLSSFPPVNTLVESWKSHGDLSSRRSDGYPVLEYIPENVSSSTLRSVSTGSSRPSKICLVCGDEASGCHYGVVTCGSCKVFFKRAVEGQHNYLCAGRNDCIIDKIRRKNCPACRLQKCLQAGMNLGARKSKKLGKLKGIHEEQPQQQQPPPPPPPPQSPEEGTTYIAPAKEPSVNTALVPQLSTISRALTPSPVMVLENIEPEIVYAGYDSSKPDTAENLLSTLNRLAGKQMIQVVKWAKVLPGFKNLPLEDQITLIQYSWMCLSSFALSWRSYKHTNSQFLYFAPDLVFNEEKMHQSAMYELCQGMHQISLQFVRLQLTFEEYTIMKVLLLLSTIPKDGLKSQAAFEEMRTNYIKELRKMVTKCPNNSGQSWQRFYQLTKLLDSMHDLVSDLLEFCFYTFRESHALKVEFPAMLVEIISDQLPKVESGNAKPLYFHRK
The experiment in a line: MR activation (max fold activation). It counts as cell-based. Particulars: Table 4.

In assay [2] the target is T3, glucocorticoid receptor (GR) (Homo sapiens, UniProt P04150).
T3 construct: purchased Panvera Corp, Madison, Wis
T3 sequence (P04150 1-777): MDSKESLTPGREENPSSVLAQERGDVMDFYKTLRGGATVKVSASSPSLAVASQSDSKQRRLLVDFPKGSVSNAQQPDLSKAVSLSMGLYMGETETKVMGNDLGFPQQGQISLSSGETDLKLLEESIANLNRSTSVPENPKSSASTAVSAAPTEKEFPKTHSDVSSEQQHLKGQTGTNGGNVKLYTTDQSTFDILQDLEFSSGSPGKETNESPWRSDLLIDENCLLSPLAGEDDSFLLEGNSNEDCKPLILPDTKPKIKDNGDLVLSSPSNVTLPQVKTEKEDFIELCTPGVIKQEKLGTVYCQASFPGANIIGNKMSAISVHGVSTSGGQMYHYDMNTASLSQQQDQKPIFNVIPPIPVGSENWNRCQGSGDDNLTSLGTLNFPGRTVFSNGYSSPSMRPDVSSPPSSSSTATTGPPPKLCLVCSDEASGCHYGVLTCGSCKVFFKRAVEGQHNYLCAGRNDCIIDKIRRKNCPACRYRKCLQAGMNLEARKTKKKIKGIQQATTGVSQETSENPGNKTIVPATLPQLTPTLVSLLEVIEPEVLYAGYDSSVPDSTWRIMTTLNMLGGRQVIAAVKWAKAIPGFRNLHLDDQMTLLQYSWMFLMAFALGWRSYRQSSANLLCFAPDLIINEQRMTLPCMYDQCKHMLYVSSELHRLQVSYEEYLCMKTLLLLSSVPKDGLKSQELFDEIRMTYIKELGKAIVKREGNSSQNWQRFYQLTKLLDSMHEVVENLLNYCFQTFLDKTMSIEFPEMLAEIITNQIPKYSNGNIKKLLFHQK
The experiment in a line: Glucocorticoid Receptor Competitor Assay Kit (Panvera) ligand binding. Particulars: Table 3; relative binding affinity, dexamethasone = 100. An excerpt:
The Glucocorticoid Receptor Competitor Assay Kit (Panvera Corp, Madison, Wis.) was used for ligand binding studies. The recommended room temperature protocol was followed for all assayed ligands.

Assay [3] has as its target T4, GR (Homo sapiens, UniProt P04150).
T4 construct: expressed in transfected cells; host or cells: CV-1 cells, transient transfection (plasmid a gift of Keith Yamamoto, UCSF)
T4 sequence (P04150 1-777): T3 sequence (P04150 1-777)
The experiment in a line: GRE (TAT3-Luc) activation luciferase assay in CV-1 cells transfected with GR. Type of assay: cell-based. Particulars: Table 4; for EC50: read-out: GR pot (EC50). The method, then: Cells were plated into tissue culture treated, 96 well flat bottom plates (25,000 cells/well), and incubated for 12 h at 37° C. Cells were then transfected using the Lipofectamine PLUS transfection reagent (Gibco BRL). DNA-lipid complexes of 5 ng GR, 50 ng TAT3-Luc, 7.5 ng β-galactosidase, 1 μL-well PLUS reagent and 0.67 μL-well lipofectamine in 50 μL/well serum free media were added to cells and incubated for 4 h at 37° C. Complexes were removed and hormones diluted in 5% charcoal-stripped FBS were added to the cells, which were then incubated for 24 hours at 37° C. Media was removed and the cells were washed with 100 μL Ca^+2, Mg^+2 free phosphate buffered saline (PBS). Lysis was achieved by adding 50 μL of Passive Lysis Buffer (Promega Corp, Madison, Wis.) and shaking the plate for 15 min. 15 μL of this lysate was then used to assay β-galactosidase activity (β-galactosidase enzyme assay system, Promega Corp., recommended procedures followed). The Luciferase Assay System (Promega Corp.) was used to assay luciferase activity. 100 μL of luciferase assay reagent was added rapidly to the plate and luminescence was measured for 10 ms/well on an Analyst AD Detection System (LJL Biosystems, Sunnyvale, Calif.).

A further assay concerns NF-κB. The experiment in a line: NF-κB repression luciferase assay in A549 cells. Type of assay: cell-based, human. Particulars: Table 5, TNF-α-stimulated A549 cells; for EC50: Homo sapiens, read-out: Repression NF-KB pot (EC50). An excerpt:
Plasmids for GR (human, pSG5 backbone), AP1-Luc (synthetic AP1 response element upstream of a firefly luciferase gene), TAT3-Luc (three copies of the tyrosine aminotransferase glucocorticoid response element upstream of a firefly luciferase gene), β-galactosidase (used as a transfection control), as well as two stable transfected cells lines: an A549 (human, lung carcinoma) cell line stably transfected with a κB response element upstream of a firefly luciferase gene, (R. M. Nissen et al., Genes Dev., 14(18):2314-29, (2000)) and a U2OS (human, osteosarcoma) stably transfected with rat GR (I. Rogatsky, et al., Mol. Cell. Biol., 1997, 17, 3181-3193) were a gift of Professor Keith Yamamoto (Department of Biochemistry, University of California, San Francisco).
For NF-κB repression assays, A549 cells stably transfected with a luciferase reporter were grown under the same conditions as CV-1 cells. 50,000 cells/well were plated into 96 well plates and incubated for 12 h at 37° C. Either TNF-α alone or mixed with various hormone dilutions in media were then added to the cells, which were then incubated for 8 hours. Procedures for lysis and luciferase assay were performed as previously described. Protein content was used as a control in this case and the recommended procedures using the BCA Protein Assay Kit (Roche) were followed.

The subject of the next assay is Coll A. The experiment in a line: Coll A repression. Type of assay: cell-based. Particulars: for EC50: read-out: Repression Coll A pot (EC50); for Emax: read-out: Repression Coll A % max repression.

Where two headings read alike, the source gives them in different places.

By EC50 is commonly meant the midpoint of the concentration-response curve. In the case of `CC12Cc3cnn(-c4ccc(F)cc4)c3C=C1CCCC2C(O)c1csc2ccccc12` (centres unmarked) [Compound 221, 3a,7a-(Dihydro-benzo[b]thiophen-3-yl)-[1-(4-fluoro-phenyl)-4a-methyl-4,4a,5,6,7,8-hexahydro-1H-benzo[f]indazol-5-yl]-methanol], the EC50 at GR [1] is 5.3 nM. In addition, the Emax on GR [1] (U2OS) came out at 74%. Further, the “MR max fold activation” value on MR turned out to be 2.0 ± 0.7. Moreover, the “GR binding RBA (dex = 100)” value in assay [2] is listed as 93. In addition, at GR [3], the “GRE activation max fold activation” value is on record as 21 and the EC50 was 313 nM.

For the compound `C[C@]12CCC(=O)C=C1CC[C@@H]1[C@@H]2[C@@H](O)C[C@@]2(C)[C@H]1CC[C@]2(O)C(=O)CO` [Cortisol, cortisol], the concentration giving a half-maximal response (EC50) in the assay with NF-κB was determined as 8.4 nM; in the assay with Coll A (Table 5), 2.1 nM. Also, the “Repression NF-KB % max repression” value in the assay with NF-κB was found to be 83%.

With `C[C@@H]1C[C@H]2[C@@H]3CCC4=CC(=O)C=C[C@]4(C)[C@@]3(F)[C@@H](O)C[C@]2(C)[C@@]1(O)C(=O)CO` [Dexamethasone, dexamethasone, reference compound], the Emax on GR [1] was found to be 89%; in the assay with Coll A (Table 2), 84%. Also, the half-maximal effective concentration (EC50) came to 1.5 nM in the assay on NF-κB and 0.36 nM in the assay on Coll A (Table 2). Moreover, the “Repression NF-KB % max repression” value in the assay on NF-κB worked out at 87%. Also, in the assay on Coll A (Table 5), the “Repression Coll A % max repression” value is on record as 84%.

On to `CC12Cc3cnn(-c4ccc(F)cc4)c3C=C1CCCC2C(O)c1ccc(O)cc1` (centres unmarked) [Compound 231, 4-{[1-(4-Fluoro-phenyl)-4a-methyl-4,4a,5,6,7,8-hexahydro-1H-benzo[f]indazol-5-yl]-hydroxy-methyl}-phenol], for which the concentration for a half-maximal effect (EC50) at GR [1] is 12.8 nM; at GR [3] it was 330 ± 92 nM; in the assay on Coll A (Table 5) it was 28 nM. Moreover, the values for the Emax at GR [1] (U2OS) and in the assay on Coll A (Table 5) were 68% and 70%, respectively. Further, the “MR max fold activation” value at MR is on record as 2.9 ± 0.5. The “GR binding RBA (dex = 100)” value in assay [2] was 36. The “GRE activation max fold activation” value on GR [3] amounted to 69 ± 25.

Consider `C[C@]12CCC(=O)C=C1CC[C@@H]1[C@@H]2[C@@H](O)C[C@]2(C=O)[C@@H](C(=O)CO)CC[C@@H]12` [Aldosterone, reference compound], for which the “MR max fold activation” value on MR is 6.1 ± 1.5. On GR [3], the “GRE activation max fold activation” value is given as 41 and the half-maximal effective concentration (EC50) came out at 765 nM.

As for `CC12Cc3cnn(-c4ccc(F)cc4)c3C=C1CCCC2C(O)c1cccc(O)c1` (centres unmarked) [Compound 229, 3-{[1-(4-Fluoro-phenyl)-4a-methyl-4,4a,5,6,7,8-hexahydro-1H-benzo[f]indazol-5-yl]-hydroxy-methyl}-phenol], the EC50 at GR [1] is 16.6 nM. At GR [1] (U2OS), the Emax came to 77%. Further, the “MR max fold activation” value on MR came out at 3.1 ± 1.0. Besides, the “GR binding RBA (dex = 100)” value in assay [2] was 52. Further, on GR [3], the “GRE activation max fold activation” value is listed as 55 ± 2 and the EC50 was 110 ± 7 nM.
